Measurements from patent US20240158446A1, “CYCLIC COMPOUND HAVING SELECTIVE INHIBITORY ACTION ON KRAS OVER HRAS AND NRAS” (CHUGAI SEIYAKU KABUSHIKI KAISHA, priority 2021, published 2024).
Like-named read-outs stand apart in the source and are kept apart here.

Tests used:
[1] = biological target: GDP-bound HRAS wild-type protein (Homo sapiens, UniProt P01112); assay: Binding to HRAS by surface plasmon resonance (SPR), Single Cycle Kinetics; conditions: for HRAS/KRAS (ratio of KD value for HRAS to KD value for KRAS): GDP-bound HRAS wild-type protein vs GDP-bound KRAS wild-type protein; for HRAS/KRAS (ratio of KD value with respect to GDP-bound HRAS wild-type protein to KD value with respect to KRAS): SPR KD ratio HRAS/KRAS, class symbols
[2] = biological target: GDP-bound KRAS wild-type protein (Homo sapiens, UniProt P01116); assay: Binding to KRAS by surface plasmon resonance (SPR), Single Cycle Kinetics
[3] = system: human lung cancer strain NCI-H441;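 note: cell proliferation inhibition after four days measured by CellTiter-Glo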
[4] = biological target: GDP-bound NRAS wild-type protein (Homo sapiens, UniProt P01111); assay: Binding to NRAS by surface plasmon resonance (SPR), Single Cycle Kinetics; conditions: for NRAS/KRAS (ratio of KD value for NRAS to KD value for KRAS): GDP-bound NRAS wild-type protein vs GDP-bound KRAS wild-type protein; for NRAS/KRAS (ratio of KD value with respect to GDP-bound NRAS wild-type protein to KD value with respect to KRAS): SPR KD ratio NRAS/KRAS, class symbols
[5] = SPR, Single Cycle Kinetics, 1:1 binding model, GDP-bound KRAS wild-type protein, read-out: KRAS KD
[6] = SPR Single Cycle Kinetics, GDP-bound KRAS wild-type protein, 1:1 binding model, read-out: KRAS KD

Chain of GDP-bound NRAS wild-type protein (P01111 whole entry): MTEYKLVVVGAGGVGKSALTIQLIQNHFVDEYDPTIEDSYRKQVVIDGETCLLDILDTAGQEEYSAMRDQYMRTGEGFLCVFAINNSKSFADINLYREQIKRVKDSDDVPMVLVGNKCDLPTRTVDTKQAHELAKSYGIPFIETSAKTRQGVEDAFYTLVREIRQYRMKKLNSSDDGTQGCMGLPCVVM
Chain of GDP-bound KRAS wild-type protein (P01116 whole entry): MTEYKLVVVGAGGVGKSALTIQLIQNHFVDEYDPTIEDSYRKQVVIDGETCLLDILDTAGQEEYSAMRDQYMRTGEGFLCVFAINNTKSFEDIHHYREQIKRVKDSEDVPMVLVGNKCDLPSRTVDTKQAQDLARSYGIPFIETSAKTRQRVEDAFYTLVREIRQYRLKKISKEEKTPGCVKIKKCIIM
Chain of GDP-bound HRAS wild-type protein (P01112 whole entry): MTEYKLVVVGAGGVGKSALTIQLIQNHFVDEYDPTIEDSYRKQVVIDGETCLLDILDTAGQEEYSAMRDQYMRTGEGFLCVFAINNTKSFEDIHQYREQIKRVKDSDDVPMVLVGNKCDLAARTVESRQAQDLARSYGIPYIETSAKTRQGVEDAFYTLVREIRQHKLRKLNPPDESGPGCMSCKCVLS

Compound | HRAS/KRAS (ratio of KD value for HRAS to KD value for KRAS) ([1]; SPR, KD ratio class) | Kd [2, 5] [nM] | IC50 [3] [nM] | NRAS/KRAS (ratio of KD value for NRAS to KD value for KRAS) ([4]; SPR, KD ratio class) | also measured
C=CC[C@H]1C(=O)N[C@@H]([C@@H](C)CC)C(=O)N(C)CC(=O)N(C)[C@H]2C/C=C\CCN(C2=O)[C@@H](CC2CCC(F)(F)CC2)C(=O)N(C)CC(=O)N[C@@H](CCc2cc(F)c(C(F)(F)F)c(F)c2)C(=O)N2C[C@H](OCC)C[C@H]2C(=O)NC2(CCC2)C(=O)N(C)[C@@H](C2CCCC2)C(=O)N(C)[C@H](C(=O)N(C)C)CC(=O)N1C [PP1454, (2S,8S,12R,14S,20S,23S,27S,30S,36S,38Z)-27-allyl-20-cyclopentyl-2-[(4,4-difluorocyclohexyl)methyl]-8-[2-[3,5-difluoro-4-(trifluoromethyl)phenyl]ethyl]-12-ethoxy-N,N,4,19,22,26,32,35-octamethyl-30-[(1S)-1-methylpropyl]-3,6,9,15,18,21,25,28,31,34,42-undecaoxo-spiro[1,4,7,10,16,19,22,26,29,32,35-undecazatricyclo[34.5.1.0^10,14]dotetracont-38-ene-17,1′-cyclobutane]-23-carboxamide] | A (a compound having 10 or more and less than 20 is denoted as A) | 0.096 | 15.2 | A (a compound having 10 or more and less than 20 is denoted as A) | –
CCC[C@H]1C(=O)N[C@@H]([C@@H](C)CC)C(=O)N(C2CC2)CC(=O)N(C)[C@H]2C/C=C\CCN(C2=O)[C@@H](Cc2ccc(C(F)(F)F)cc2)C(=O)N(C)CC(=O)N[C@@H](CCc2ccc(Cl)c(Cl)c2)C(=O)N2C[C@H](OCC)C[C@H]2C(=O)NC2(CC(C)(C)C2)C(=O)N(C)[C@@H](CC(C)(C)C)C(=O)N(C)[C@H](C(=O)N(C)C)CC(=O)N1C [PP2749] | – | – | 22.1 | – | HRAS/KRAS (ratio of KD value with respect to GDP-bound HRAS wild-type protein to KD value with respect to KRAS) [1]: A (a compound having 10 or more and less than 20 is denoted as A); Kd [2, 6]: 0.87 nM; NRAS/KRAS (ratio of KD value with respect to GDP-bound NRAS wild-type protein to KD value with respect to KRAS) [4]: AA (a compound having 20 or more is denoted as AA)
CCC(CC)[C@H]1C(=O)N(C)[C@H](C(=O)N(C)C)CC(=O)N(C)[C@@H](COC)C(=O)N[C@@H]([C@@H](C)CC)C(=O)N(C)CC(=O)N(C)[C@H]2C/C=C\CCN(C2=O)[C@@H](Cc2ccc(C(F)(F)F)cc2)C(=O)N(C)CC(=O)N[C@@H](CCc2ccc(Cl)c(Cl)c2)C(=O)N2C[C@H](OC(C)C)C[C@H]2C(=O)NC2(CC(C)(C)C2)C(=O)N1C [PP2533] | – | – | 20 | – | HRAS/KRAS (ratio of KD value with respect to GDP-bound HRAS wild-type protein to KD value with respect to KRAS) [1]: A (a compound having 10 or more and less than 20 is denoted as A); Kd [2, 6]: 0.49 nM; NRAS/KRAS (ratio of KD value with respect to GDP-bound NRAS wild-type protein to KD value with respect to KRAS) [4]: AA (a compound having 20 or more is denoted as AA)
CCCCCC[C@H]1C(=O)N[C@@H]([C@@H](C)CC)C(=O)N(C)CC(=O)N(C)[C@H]2C/C=C\CCN(C2=O)[C@@H](Cc2ccc(C(F)(F)F)cc2)C(=O)N(C)CC(=O)N[C@@H](CCc2ccc3sccc3c2)C(=O)N2C[C@H](OCC)C[C@H]2C(=O)NC2(CCC2)C(=O)N(C)[C@@H](C2CCCC2)C(=O)N(C)[C@H](C(=O)N(C)C)CC(=O)N1C [PP1259] | A (a compound having 10 or more and less than 20 is denoted as A) | 0.49 | 62 | A (a compound having 10 or more and less than 20 is denoted as A) | –
CC[C@H](C)[C@@H]1NC(=O)[C@H](CC(C)C)N(C)C(=O)C[C@@H](C(=O)N(C)C)N(C)C(=O)[C@H](C2CCCC2)N(C)C(=O)C2(CC(C)(C)C2)NC(=O)[C@@H]2C[C@@H](F)CN2C(=O)[C@H](CCc2cc(F)c(C(F)(F)F)c(F)c2)NC(=O)CN(C)C(=O)[C@H](Cc2ccc(C(F)(F)F)cc2)N2CC/C=C\C[C@@H](C2=O)N(C)C(=O)CN(C)C1=O [PP1566] | A (a compound having 10 or more and less than 20 is denoted as A) | 0.026 | 2.3 | A (a compound having 10 or more and less than 20 is denoted as A) | –
CCO[C@@H]1C[C@H]2C(=O)NC3(CCC3)C(=O)N(C)[C@@H](C3CCCC3)C(=O)N(C)[C@H](C(=O)N(C)C)CC(=O)N(C)[C@@H](CC)C(=O)N[C@@H]([C@@H](C)CC)C(=O)N(C)CC(=O)N(C)[C@H]3C/C=C\CCN(C3=O)[C@@H](CC3CCCCC3)C(=O)N(C)CC(=O)N[C@@H](CCc3cc(F)c(C(F)(F)F)c(F)c3)C(=O)N2C1 [PP1466, (2S,8S,12R,14S,20S,23S,27S,30S,36S,38Z)-2-(cyclohexylmethyl)-20-cyclopentyl-8-[2-[3,5-difluoro-4-(trifluoromethyl)phenyl]ethyl]-12-ethoxy-27-ethyl-N,N,4,19,22,26,32,35-octamethyl-30-[(1S)-1-methylpropyl]-3,6,9,15,18,21,25,28,31,34,42-undecaoxo-spiro[1,4,7,10,16,19,22,26,29,32,35-undecazatricyclo[34.5.1.0^10,14]dotetracont-38-ene-17,1′-cyclobutane]-23-carboxamide] | A (a compound having 10 or more and less than 20 is denoted as A) | 0.14 | 33.2 | A (a compound having 10 or more and less than 20 is denoted as A) | –
CCO[C@@H]1C[C@H]2C(=O)NC3(CCC3)C(=O)N(C)[C@@H](C3CCCC3)C(=O)N(C)[C@H](C(=O)N3CCCC3)CC(=O)N(C)[C@@H](CC3CCCC3)C(=O)N[C@@H]([C@@H](C)CC)C(=O)N(C)CC(=O)N(C)[C@H]3C/C=C\CCN(C3=O)[C@@H](Cc3ccc(C)cc3)C(=O)N(C)CC(=O)N[C@@H](CCc3cc(F)c(C(F)(F)F)c(F)c3)C(=O)N2C1 [PP1412] | A (a compound having 10 or more and less than 20 is denoted as A) | 0.19 | 23 | A (a compound having 10 or more and less than 20 is denoted as A) | –
CCO[C@@H]1C[C@H]2C(=O)NC3(CCCC3)C(=O)N(C)[C@@H](C3CCCC3)C(=O)N(C)[C@H](C(=O)N(C)C)CC(=O)N(C)[C@@H](CC(C)C)C(=O)N[C@@H]([C@@H](C)CC)C(=O)N(C)CC(=O)N(C)[C@H]3C/C=C\CCN(C3=O)[C@@H](CC3CCCCC3)C(=O)N(C)CC(=O)N[C@@H](CCc3cc(F)c(C(F)(F)F)c(F)c3)C(=O)N2C1 [PP1473] | A (a compound having 10 or more and less than 20 is denoted as A) | 0.19 | 36.6 | A (a compound having 10 or more and less than 20 is denoted as A) | –
CCC[C@H]1C(=O)N[C@@H]([C@@H](C)CC)C(=O)N2CCC[C@H]2C(=O)N(C)[C@H]2C/C=C\CCN(C2=O)[C@@H](Cc2ccc(C)cc2)C(=O)N(C)CC(=O)N[C@@H](CCc2cc(F)c(C(F)(F)F)c(F)c2)C(=O)N2C[C@H](OCC)C[C@H]2C(=O)N(C)C2(CCC2)C(=O)N(C)[C@@H](C2CCCC2)C(=O)N(C)[C@H](C(=O)N2CCCCC2)CC(=O)N1C [PP3115, (1S,4S,10S,13S,17S,20S,26S,28R,32S,38S,42Z)-20-cyclopentyl-32-[2-[3,5-difluoro-4-(trifluoromethyl)phenyl]ethyl]-28-ethoxy-2,14,18,21,24,36-hexamethyl-10-[(1S)-1-methylpropyl]-17-(piperidine-1-carbonyl)-13-propyl-38-(p-tolylmethyl)spiro[2,8,11,14,18,21,24,30,33,36,39-undecazatetracyclo[37.5.1.0^4,8.0^26,30]pentatetracont-42-ene-23,1′-cyclobutane]-3,9,12,15,19,22,25,31,34,37,45-undecone] | – | – | – | – | HRAS/KRAS (ratio of KD value for HRAS to KD value for KRAS) ([1]; SPR): B (a compound having 3 or more and less than 10 is denoted as B); ratio of the KD value with respect to GDP-bound HRAS wild-type protein to the KD value with respect to KRAS ([1]; SPR, KD(HRAS)/KD(KRAS)): B (a compound having 3 or more and less than 10 is denoted as B); Kd ([2]; SPR, Single Cycle Kinetics, 1:1 binding model, read-out: KD value with respect to GDP-bound KRAS wild-type protein): 2.6 nM; Kd ([2]; SPR, Single Cycle Kinetics, GDP-bound KRAS wild-type protein, read-out: KRAS KD): 2.6 nM; IC50 ([3]; read-out: NCI-H441 cell proliferation inhibitory activity, 50% proliferation inhibitory concentration (IC50 value), NCI-H441, four days, CellTiter-Glo): 5.7 nM; NRAS/KRAS (ratio of KD value for NRAS to KD value for KRAS) ([4]; SPR): A (a compound having 10 or more and less than 20 is denoted as A); ratio of the KD value with respect to GDP-bound NRAS wild-type protein to the KD value with respect to KRAS ([4]; SPR, KD(NRAS)/KD(KRAS)): A (a compound having 10 or more and less than 20 is denoted as A)
CCO[C@@H]1C[C@H]2C(=O)NC3(CCC3)C(=O)N(C)[C@@H](C3CCCC3)C(=O)N(C)[C@H](C(=O)N3CCOCC3)CC(=O)N(C)[C@@H](CC)C(=O)N[C@@H]([C@@H](C)CC)C(=O)N3CC[C@H]3C(=O)N(C)[C@H]3CC[C@@H](C)CN(C3=O)[C@@H](Cc3ccc(C(F)(F)F)cc3)C(=O)N(C)CC(=O)N[C@@H](CCc3cc(F)c(C(F)(F)F)c(F)c3)C(=O)N2C1 [PP1369] | B (a compound having 3 or more and less than 10 is denoted as B) | 0.26 | 13.4 | B (a compound having 3 or more and less than 10 is denoted as B) | –
